Assay results reported in patent publication US5162302A, “Endocrine manipulation to improve body composition of poultry” (University of Delaware, priority 1990, dated 1992).
Read-outs that look alike come from different tables or passages of the source.

What was measured:
[1] = Three daily intramuscular injections of GRF and dietary T3: growth, feed efficiency, body composition (Example 1); assay type: in vivo, broiler chickens
Protocol: Bird management. One day-old broiler cockerels (Ross x Arbor acre) were obtained from a commercial hatchery (Perdue Hatchery, Salisburg, MD). Five birds were randomly assigned to each of 24 pens during the first three weeks. Birds were housed in a Petersime battery-brooder and maintained in a environmentally controlled room on a 20L:4D light/dark cycle. The temperature was held at 33° C. for the first week and reduced 3° C. at weekly intervals. During this period, the chicks were provided with commercial starter ration (3100 kcal ME/kg and 22% crude protein) and water ad libitum.
At 3 weeks-of-age, four birds per pen were moved to wire cages. From 3 to 4 weeks of age, birds were fed a commercial broiler grower/finisher ration containing 19% crude protein and 3200 kcal metabolizable energy/kg. At 4 weeks of age, birds were fed a special high-protein ration that contained 25% crude protein and 3250 kcal ME/kg feed (See Table 1). […] During the experimental period (5 to 7 weeks of age), individual body weights and feed consumption were determined at weekly intervals for calculation of average daily gain (ADG), average daily feed consumption (ADFC) and gain-to-feed ratio (GTF).
Hormone treatments. […] Synthetic human pancreatic growth releasing factor (hpGRF1-44) was obtained from Pitman-Moore, Inc. (Terre Haute, IN). […] Begining at 35 days of age, broiler cockerels were given three daily intramuscular injections of buffer (0.05M sodium acetate, pH 5.0) or GRF dissolved in buffer (10 μg/kg body weight) each day at 0800, 1600, and 2400 hr. Each bird was weighed a 3 day intervals to adjust GRF dosage.
At 49 days of age, chickens were starved for 24 hours and killed for determination of final body, abdominal fat pad, and liver weights. Carcasses from one-half of the birds in each pen (2 birds/pen) were frozen for determination of body composition by proximate analysis. Each frozen carcass, including the liver and abdominal fat, was ground twice in meat grinder fitted with a one-quarter inch dye (Biro Model 5, Biro Mfg. Co., Marblehead, OH). Aliquots of the ground meat were dried at 80° C. for moisture determination. Dried samples were analyzed for protein by macro-Kjeldahl, fat by ether extraction, and ash contents according to established analytical procedures. Body composition data are presented as a percent of final body weight at 7 weeks of age.
Statistical analyses. All data were analyzed with the pen as the experimental unit since dietary treatments were applied to the pen and feed consumption was determined for each pen. Least squares regression analysis was used to test for effects of treatments on ADG, ADFC, GTF, body weight and body composition. Significant differences (P<0.05) among treatments were determined by Fisher's least significant difference test.

[2] = Three daily intravenous injections of GRF and dietary T3: growth, feed efficiency, body composition (Example 2); assay type: in vivo, broiler chickens
Source text: Bird management. Day-old broiler cockerels (Ross X Arbor Acre strain) were obtained from a commercial hatchery (Longnecker Hatchery, Elizabethtown, PA) and randomly assigned in groups of four birds to pens in a heated-battery brooder. Chicks were provided with a commercial broiler-starter ration (Pennfield Corp., Lancaster, PA), containing 3100 kcal metabolizable energy/kg feed and 23% crude protein, and water ad libitum. At 3 weeks of age, birds were transferred to wire pens held in a controlled-environment room. From 3 to 7 weeks of age, birds were maintained under a 20L:4D light-dark cycle at 21° C. and continuously provided with water and a commercial broiler-finisher ration containing 3250 kcal metabolizable energy/kg feed and 20% crude protein. Broiler cockerels were given three daily intravenous injections of either buffer (0.1M phosphate buffer, pH 7.0; BC) or GRF dissloved in buffer (25 μg/kg body weight) at 0800, 1600, and 2400 hr.
Dietary T3 and GRF Treatments. Four treatments were randomly assigned to pens in a randomized-complete-block design with three replicate pens per treatment. […] All birds were weighted at three day intervals to adjust the daily GRF dosage. Recombinant-derived human growth hormone-releasing factor (rhGRF1-44) was obtained from Pitman-Moore, Inc. (Terre Haute, IN).
The average daily gain (ADG), average daily feed consuption (ADFC) and the gain-to-feed ratio (GTF) were determined for the two week period (5 to 7 weeks of age). At the end of the experiment (7 weeks of age), each bird was killed to obtain the final body, abdominal fat and liver weights. Carcasses were frozen for determination of body composition as described in Example 1.
Statistical analyses. A randomized-complete-block design was used in which the four treatments were replicated in three pens. The growth data were analyzed with the pen as the experimental unit, since feed comsumption was determined for each pen of four birds. Significant differences (P≤0.05) due to the main effect of treatment were determined by Fisher's Least Significant Difference test.

[3] = 0.25 to 1 ppm in diet throughout the entire growth cycle; cited from earlier work
[4] = Dietary T3 in finishing feed, dose-response: plasma T3, muscle protein turnover, fat, growth, hormones
[5] = Protein:fat ratio of broiler chickens under hormone treatments; assay type: in vivo; conditions: at the doses tested
[6] = TRH 1 or 10 μg/kg/day, GRF 10 μg/kg/day i.v., 21 days, cited from earlier work
[7] = 1 to 10 μg TRH/day i.v. from 4 to 6 or 8 weeks-of-age; cited from earlier work
[8] = induced hypothyroid state; cited from earlier work
[9] = finishing pigs, injection; cited from earlier work
[10] = 5 to 7 weeks of age, T3 0.25 ppm, GRF 10 μg/kg i.m. 3x daily, mean ± SEM of four pens
[11] = 7 weeks of age, i.m. GRF, four pens (2 birds/pen)
[12] = 7 weeks of age, i.m. GRF, mean ± SEM of four pens
[13] = 5 to 7 weeks of age, T3 0.25 ppm, GRF 25 μg/kg i.v. 3x daily, mean ± SEM of three pens
[14] = 7 weeks of age, i.v. GRF, mean ± SEM of twelve cockerels
[15] = 7 weeks of age, i.v. GRF, twelve cockerels
[16] = 0.25 ppm T3, compared to the control group
[17] = plasma thyroid hormone bioactivity 360-1200% of normal

## N[C@@H](Cc1cc(I)c(Oc2ccc(O)c(I)c2)c(I)c1)C(=O)O [T3, 3,3',5-triiodo-L-thyronine]
[1]; 5 to 7 weeks of age, T3 0.25 ppm in feed, GRF 10 μg/kg i.m. three times daily, 25% protein ration, mean ± SEM of four pens
  ADG (average daily weight gain): 76.5 ± 3.0
[1]; [10]
  ADFC (average daily feed consumption): 185.1 ± 7.1
  GTF (gain-to-feed ratio): 0.414 ± 0.01
[1]; 7-week-old chickens, compared to the CF+BI group
  Reduction of total body fat content: 10%
[1]; 7 weeks of age, T3 0.25 ppm, GRF 10 μg/kg i.m. 3x daily, mean ± SEM of four pens
  Final body weight BW: 2.75 ± 0.05 kg
[1]; [11]
  Body composition: ash: 2.24 ± 0.08 % BW
  Body composition: fat: 10.0 ± 0.78 % BW
  Body composition: protein: 17.1 ± 0.26 % BW
  Body composition: water: 67.6 ± 0.70 % BW
[1]; [12]
  Relative weight of abdominal fat pad: 1.12 ± 0.11 % BW
  Relative weight of liver: 1.99 ± 0.09 % BW
[1]; compared to the CF+BC group, P<0.05
  Reduction of abdominal fat weight: 31%
[1]; dietary T3 or daily i.m. GRF
  Effect on ADG, ADFC or GTF: no effect
[2]; 5 to 7 weeks of age, T3 0.25 ppm in feed, GRF 25 μg/kg i.v. three times daily, mean ± SEM of three pens
  ADG (average daily weight gain): 70.7 ± 5.3
[2]; [13]
  ADFC (average daily feed consumption): 157.0 ± 7.2
  GTF (gain-to-feed ratio): 0.448 ± 0.021
[2]; 7 weeks of age, vs control
  Increase of body water content: 2%
  Reduction of body fat content: 10%
[2]; [14]
  Final body weight BW: 2.82 ± 0.06 kg
  Relative weight of abdominal fat: 1.54 ± 0.14 % BW
  Relative weight of liver: 2.06 ± 0.05 % BW
[2]; [15]
  Body composition: ash: 2.45 ± 0.04 % BW
  Body composition: fat: 11.5 ± 0.64 % BW
  Body composition: protein: 18.8 ± 0.19 % BW
  Body composition: water: 67.0 ± 0.50 % BW
[2]; compared to the CF+BI group
  Reduction of abdominal fat weight: 20%
[2]; dietary T3 or daily i.v. GRF alone, or in combination
  Effect on ADG, ADFC or the GTF ratio: did not significantly affect
[3]
  Growth performance (body weight gain and feed efficiency): reduced body weight gain and feed efficiency
[4]; 0.1 ppm T3 in finishing feed
  Effect upon weight gain: no significant adverse effect
[4]; 0.25 ppm T3
  Increase of protein accretion in breast and leg muscle: 45-88%
  Reduction of abdominal fat weight: 22%
[4]; [16]
  Increase of FAR of leg muscle: 45%
  Increase of FAR of pectoralis major (breast muscle): 88%
[4]; 0.25 ppm T3 in feed
  Effect on growth rate: virtually no statistically significant adverse effect
  Plasma T3 level: 2.7 ± 0.2 ng/mL
  Plasma T3 level (control group = 100% of normal): ~ 208%
[4]; 0.25 to 4 ppm of feed, p<0.05
  Increase of rate of protein synthesis in the leg muscle: at least 49%
[4]; 1 ppm T3 in feed
  Plasma T3 level: 4.5 ± 0.8 ng/mL
  Plasma T3 level (control group = 100% of normal): ~ 346%
[4]; 1 ppm T3 in finishing feed
  Effect upon weight gain: some deviation from normal weight gain
[4]; 4 ppm T3 in feed
  Plasma T3 level: 16.3 ± 2.6 ng/mL
  Plasma T3 level (control group = 100% of normal): ~ 125%
[4]; 4 ppm of T3
  Increase of fractional degradation rate of breast muscle: 116%
[4]; 4 ppm of T3, p<0.05
  Increase of fractional synthesis rate (FSR) of the pectoralis major (breast) muscle: 56%
[4]; T3 doses in the 1 to 4 ppm range
  Fractional Accretion Rate (FAR) in the pectoralis major (breast) muscle: affected negatively
[4]; dietary T3 during the finishing phase
  Plasma GH levels: decrease
[4]; dietary T3 treatment alone
  Glucagon secretion: increased
  Insulin secretion: depresses
[4]; lower doses of T3 (0.25 to 1 ppm)
  Protein synthesis rate in breast muscle: only a slight effect
[4]; [17]
  Depression of body weight gain: ≤ 57%
  Depression of feed consumption: ≤ 35%

## NC(=O)[C@@H]1CCCN1C(=O)[C@H](Cc1c[nH]cn1)NC(=O)[C@@H]1CCC(=O)N1 [TRH, pyro-L-Glu-L-His-L-Pro-NH2]
[5]
  Effect on protein:fat ratio: decrease
[6]
  Plasma GH levels: elevated
[6]; alone or in combination
  Growth rate and feed efficiency: failed to stimulate growth rate or improve feed efficiency
[7]
  Growth rate: capable of increasing the growth rate

## CCCc1cc(=O)[nH]c(=S)[nH]1 [propylthiouracil]
[5]
  Effect on protein:fat ratio: decrease
[8]
  Body fat: increased accumulation of body fat
  Plasma insulin levels: elevated

B1: pGH: purified porcine growth hormone (protein, UniProt P01248 27-216, looked up)
Somatotropin: FPAMPLSSLFANAVLRAQHLHQLAADTYKEFERAYIPEGQRYSIQNAQAAFCFSETIPAPTGKDEAQQRSDVELLRFSLLLIQSWLGPVQFLSRVFTNSLVFGTSDRVYEKLKDLEEGIQALMRELEDGSPRAGQILKQTYDKFDTNLRSDDALLKNYGLLSCFKKDLHKAETYLRVMKCRRFVESSCAF
[9]
  Improvement of feed conversion: 7-19%
  Increase of growth rate: 10-14%
  Increase of muscle mass: 24-36%
  Reduction of carcass fat content: 18-25%

B2: GH: growth hormone (e.g. ncGH, natural chicken GH) (protein, UniProt P08998 26-216, looked up)
Somatotropin: TFPAMPLSNLFANAVLRAQHLHLLAAETYKEFERTYIPEDQRYTNKNSQAAFCYSETIPAPTGKDDAQQKSDMELLRFSLVLIQSWLTPVQYLSKVFTNNLVFGTSDRVFEKLKDLEEGIQALMRELEDRSPRGPQLLRPTYDKFDIHLRNEDALLKNYGLLSCFKKDLHKVETYLKVMKCRRFGESNCTI
[5]
  Effect on protein:fat ratio: decrease
